Tested on: patients of the REDUCE-IT and earlier EPA placebo-controlled trials
Assay: Example 3: adverse events by risk ratio, icosapent ethyl vs placebo (candidate categories; infectious disease terms of interest)
Settings: for NNT / Risk Ratio (95% CI) / ARR: ISS
[1] = Frequent Bowel Movements, Any Severity
[2] = Frequent Bowel Movements, Mild Severity
[3] = Frequent Bowel Movements, Related
[4] = Huntington's Chorea, Any Severity
[5] = Huntington's Chorea, Mild Severity
[6] = ITT, AMR101 N = 4089, placebo 8 of 4090
[7] = ITT, AMR101 N = 4089, placebo 10 of 4090
[8] = ITT, AMR101 N = 4089, placebo 22 of 4090

CC/C=C\C/C=C\C/C=C\C/C=C\C/C=C\CCCC(=O)OCC [icosapent ethyl, eicosapentaenoic acid ethyl ester]
NNT (Flatulence, Mild Severity): 129
Risk Ratio (95% CI) (Flatulence, Mild Severity): 0.424 (0.125 to 1.440) 3
ARR (Flatulence, Related): −0.8%
NNT (Flatulence, Related): 121
Risk Ratio (95% CI) (Flatulence, Related): 0.463 (0.152 to 1.408) 3
ARR [1]: −0.6%
NNT [1]: 173
Risk Ratio (95% CI) (Frequent Bowel Movements, Any Severity, case counts given): [0 drug vs 3 PBO]
ARR [2]: −0.4%
NNT [2]: 259
Risk Ratio (95% CI) (Frequent Bowel Movements, Mild Severity, case counts given): [0 drug vs 2 PBO]
ARR [3]: −0.6%
NNT [3]: 173
Risk Ratio (95% CI) (Frequent Bowel Movements, Related, case counts given): [0 drug vs 3 PBO]
ARR (Hot Flush): −0.3%
NNT (Hot Flush): 292
Risk Ratio (95% CI) (Hot Flush): 0.556 (0.125 to 2.474) 3
ARR [4]: −1.3%
NNT [4]: 77
Risk Ratio (95% CI) [4]: 0.247 (0.067 to 0.908) 4
ARR [5]: −0.9%
NNT [5]: 109
Risk Ratio (95% CI) [5]: 0.318 (0.083 to 1.223)4
ARR (Menorrhagia): −0.6%
NNT (Menorrhagia): 159
Risk Ratio (95% CI) (Menorrhagia): 0.185 (0.021 to 1.653) 5
ARR (Muscle spasms, Related): −0.0%
NNT (Muscle spasms, Related): 2007
Risk Ratio (95% CI) (Muscle spasms, Related): 0.741 (0.046 to 11.826) 2
ARR (Nasopharyngitis, Any Severity): −2.3%
NNT (Nasopharyngitis, Any Severity): 43
Risk Ratio (95% CI) (Nasopharyngitis, Any Severity): 0.588 (0.344 to 1.004) 3
ARR (Nasopharyngitis, Mild Severity): −2.3%
NNT (Nasopharyngitis, Mild Severity): 43
Risk Ratio (95% CI) (Nasopharyngitis, Mild Severity): 0.494 (0.265 to 0.921) 3
ARR (Weight loss, Related): −0.4%
NNT (Weight loss, Related): 230
Risk Ratio (95% CI) (Weight loss, Related): 0.247 (0.026 to 2.369) 4
Bronchiectasis TEAE: % of subjects (ITT, AMR101 N = 4089, placebo 0.1, Fisher's Exact p 0.5076): (0.1) %
Hepatosplenomegaly TEAE: % of subjects (ITT, AMR101 N = 4089, placebo 0.1, Fisher's Exact p 0.6249): (0.0) %
Allergic sinusitis TEAE: % of subjects (ITT, AMR101 N = 4089, placebo 0.1, Fisher's Exact p 0.6874): (0.0) %
Mucosal inflammation TEAE: % of subjects (ITT, AMR101 N = 4089, placebo 0.1, Fisher's Exact p 0.7264): (0.1) %
Systemic inflammatory response syndrome TEAE: % of subjects (ITT, AMR101 N = 4089, placebo 0.2, Fisher's Exact p 0.1092): (0.0) %
Splenomegaly TEAE: % of subjects (ITT, AMR101 N = 4089, placebo 0.2, Fisher's Exact p 0.1792): (0.1) %
Neutropenia TEAE: % of subjects (ITT, AMR101 N = 4089, placebo 0.2, Fisher's Exact p 0.2262): (0.1) %
Gingivitis TEAE: % of subjects (ITT, AMR101 N = 4089, placebo 0.2, Fisher's Exact p 0.3013): (0.1) %
Orthopnea TEAE: % of subjects (ITT, AMR101 N = 4089, placebo 0.2, Fisher's Exact p 0.3873): (0.1) %
Helicobacter infection TEAE: % of subjects (ITT, AMR101 N = 4089, placebo 0.2, Fisher's Exact p 0.4235): (0.1) %
Herpes simplex TEAE: % of subjects (ITT, AMR101 N = 4089, placebo 0.2, Fisher's Exact p 0.5807): (0.1) %
Vulvovaginal mycotic infection TEAE: % of subjects (ITT, AMR101 N = 4089, placebo 0.3, Fisher's Exact p 0.2097): (0.1) %
Bronchitis chronic TEAE: % of subjects (ITT, AMR101 N = 4089, placebo 0.3, Fisher's Exact p 0.5029): (0.2) %
Hepatobiliary disorders (SOC) TEAE: % of subjects (ITT, AMR101 N = 4089, placebo 0.5, Fisher's Exact p 0.0037): (0.1) %
Hepatomegaly TEAE: % of subjects (ITT, AMR101 N = 4089, placebo 0.5, Fisher's Exact p 0.0065): (0.1) %
Atelectasis TEAE: % of subjects (ITT, AMR101 N = 4089, placebo 0.5, Fisher's Exact p 0.0795): (0.3) %
Emphysema TEAE: % of subjects (ITT, AMR101 N = 4089, placebo 0.5, Fisher's Exact p 0.2144): (0.3) %
Rhinitis TEAE: % of subjects (ITT, AMR101 N = 4089, placebo 0.5, Fisher's Exact p 0.4166): (0.4) %
Tooth infection TEAE: % of subjects (ITT, AMR101 N = 4089, placebo 0.7, Fisher's Exact p 0.2514): (0.5) %
Influenza like illness TEAE: % of subjects (ITT, AMR101 N = 4089, placebo 0.7, Fisher's Exact p 0.6709): (0.6) %
Thrombocytopenia TEAE: % of subjects (ITT, AMR101 N = 4089, placebo 0.8, Fisher's Exact p 0.3393): (0.6) %
Wheezing TEAE: % of subjects (ITT, AMR101 N = 4089, placebo 0.9, Fisher's Exact p 0.1162): (0.6) %
General disorders and administration site conditions (SOC) TEAE: % of subjects (ITT, AMR101 N = 4089, placebo 1.0, Fisher's Exact p 0.1800): (0.7) %
Sepsis TEAE: % of subjects (ITT, AMR101 N = 4089, placebo 1.0, Fisher's Exact p 0.3535): (0.8) %
Blood and lymphatic system disorders (SOC) TEAE: % of subjects (ITT, AMR101 N = 4089, placebo 1.2, Fisher's Exact p 0.0279): (0.7) %
Hepatosplenomegaly TEAE: number of subjects (ITT, AMR101 N = 4089, placebo 3 of 4090): 1
Allergic sinusitis TEAE: number of subjects (ITT, AMR101 N = 4089, placebo 4 of 4090): 2
Mucosal inflammation TEAE: number of subjects (ITT, AMR101 N = 4089, placebo 5 of 4090): 3
Cough TEAE: % of subjects (ITT, AMR101 N = 4089, placebo 5.9, Fisher's Exact p 1.0000): (5.9) %
Bronchiectasis TEAE: number of subjects (ITT, AMR101 N = 4089, placebo 6 of 4090): 3
Influenza TEAE: % of subjects (ITT, AMR101 N = 4089, placebo 6.6, Fisher's Exact p 0.7541): (6.4) %
Pneumonia TEAE: % of subjects (ITT, AMR101 N = 4089, placebo 6.8, Fisher's Exact p 0.5627): (6.4) %
Respiratory, thoracic and mediastinal disorders (SOC) TEAE: % of subjects (ITT, AMR101 N = 4089, placebo 7.8, Fisher's Exact p 0.2050): (7.0) %
Herpes simplex TEAE: number of subjects [6]: 5
Neutropenia TEAE: number of subjects [6]: 3
Orthopnea TEAE: number of subjects [6]: 4
Systemic inflammatory response syndrome TEAE: number of subjects [6]: 2
Helicobacter infection TEAE: number of subjects (ITT, AMR101 N = 4089, placebo 9 of 4090): 5
Gingivitis TEAE: number of subjects [7]: 5
Splenomegaly TEAE: number of subjects [7]: 4
Vulvovaginal mycotic infection TEAE: number of subjects (ITT, AMR101 N = 4089, placebo 11 of 4090): 5
Bronchitis chronic TEAE: number of subjects (ITT, AMR101 N = 4089, placebo 12 of 4090): 8
Infections and infestations (SOC) TEAE: % of subjects (ITT, AMR101 N = 4089, placebo 14.6, Fisher's Exact p 0.2676): (13.8) %
Hepatomegaly TEAE: number of subjects (ITT, AMR101 N = 4089, placebo 19 of 4090): 5
Emphysema TEAE: number of subjects (ITT, AMR101 N = 4089, placebo 20 of 4090): 12
Subjects with at least one Infectious Disease TEAE of Interest: % of subjects (ITT, AMR101 N = 4089, placebo 21.6, Fisher's Exact p 0.0562): (19.9) %
Atelectasis TEAE: number of subjects [8]: 11
Hepatobiliary disorders (SOC) TEAE: number of subjects [8]: 6
Rhinitis TEAE: number of subjects [8]: 16
Influenza like illness TEAE: number of subjects (ITT, AMR101 N = 4089, placebo 27 of 4090): 23
Tooth infection TEAE: number of subjects (ITT, AMR101 N = 4089, placebo 29 of 4090): 20
Thrombocytopenia TEAE: number of subjects (ITT, AMR101 N = 4089, placebo 31 of 4090): 23
Wheezing TEAE: number of subjects (ITT, AMR101 N = 4089, placebo 36 of 4090): 23
General disorders and administration site conditions (SOC) TEAE: number of subjects (ITT, AMR101 N = 4089, placebo 40 of 4090): 28
Sepsis TEAE: number of subjects (ITT, AMR101 N = 4089, placebo 42 of 4090): 33
Blood and lymphatic system disorders (SOC) TEAE: number of subjects (ITT, AMR101 N = 4089, placebo 48 of 4090): 28
Subjects with at least one Infectious Disease Events of Interest (TEAE terms and labs): % of subjects (ITT, AMR101 N = 4089, placebo 86.8, Fisher's Exact p <.0001): (83.0) %
Cough TEAE: number of subjects (ITT, AMR101 N = 4089, placebo 241 of 4090): 241
Influenza TEAE: number of subjects (ITT, AMR101 N = 4089, placebo 271 of 4090): 263
Pneumonia TEAE: number of subjects (ITT, AMR101 N = 4089, placebo 277 of 4090): 263
Respiratory, thoracic and mediastinal disorders (SOC) TEAE: number of subjects (ITT, AMR101 N = 4089, placebo 318 of 4090): 287
Infections and infestations (SOC) TEAE: number of subjects (ITT, AMR101 N = 4089, placebo 599 of 4090): 563
Subjects with at least one Infectious Disease TEAE of Interest: number of subjects (ITT, AMR101 N = 4089, placebo 883 of 4090): 812
Subjects with at least one Infectious Disease Events of Interest (TEAE terms and labs): number of subjects (ITT, AMR101 N = 4089, placebo 3549 of 4090): 3394
AR: ADHD (AE table) (R-I): 0.0%
AR: Allergic sinusitis (AE table) (R-I): 0.1%
AR: Alzheimer's Disease (AE table) (R-I): 0.1%
AR: Asthma (AE table) (R-I): 1.3%
AR: Atelectasis (AE table) (R-I): 0.4%
